This is an account of results in patent US20030134859A1 (SANKYO COMPANY, LIMITED, priority 2000, published 2003).

Counter-ions that a name gives are not always drawn.

One test relates to Rat white adipocytes. Put plainly: Inhibition of the differentiation of adipocytes (Oil Red O). The test is classed as cell-based. Particulars: 100 nM test compound; 5 days; Oil Red O ABS550; control = 100%, blank = 0%; Table 3. The procedure, abridged: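 Rat white preadipocytes, 5,000 cells/well, given differentiation medium with compound at 100 nM final (0.1% DMSO) for 5 days at 37 °C. Lipid stained with Oil Red O, eluted in DMSO, read at 550 nm; differentiation % relative to DMSO control (100%) and blank (0%).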
Take `O=C(Nc1cccc(C(=O)N2CCCC2)c1)c1cc([N+](=O)[O-])ccc1Cl` [Example 31]: the “Rate of Differentiation (%)” value amounted to 77.2%.
Same read-out and setting: then `Cl.O=C(Nc1ccncc1)c1cc([N+](=O)[O-])ccc1Cl` [Example 146, N-(Pyridin-4-yl)-(2-chloro-5-nitrophenyl)carboxamide Hydrochloride], with 78.2%; and `Nc1ccc(-c2ccc(NC(=O)c3cc([N+](=O)[O-])ccc3Cl)cc2)cc1` [Example 192, N-[4-(4-Aminophenyl)phenyl]-(2-chloro-5-nitrophenyl)carboxamide], with 17.6%.
With `CCCCNc1ccc(-c2ccc(NC(=O)c3cc([N+](=O)[O-])ccc3Cl)cc2)cc1` [Example 203, N-[4-[4-(N-Butylamiino)phenyl]phenyl]-(2-chloro-5-nitrophenyl)carboxamide], the “Rate of Differentiation (%)” value is 32.6%.

Still in this test, the particulars now being: 100 nM test compound; 5 days; Oil Red O ABS550; control = 100%, blank = 0%; Table 3; mono-hydrochloride.
Consider `Nc1ccc(-c2ccc(NC(=O)c3cc([N+](=O)[O-])ccc3Cl)cc2)cc1` [Example 88, N-[4-(4-Aminophenyl)phenyl]-(2-chloro-5-nitrophenyl)carboxamide mono-hydrochloride], for which the “Rate of Differentiation (%)” value was 63.3%.

Still in this test, the particulars now being: Rattus norvegicus, Adipocyte, 120 h, 100 nM test compound; 5 days; Oil Red O ABS550; control = 100%, blank = 0%; Table 3; read-out: Rate of Differentiation (%).
Turning to `N#Cc1cccc(NC(=O)c2cc([N+](=O)[O-])ccc2Cl)c1` [Example 21, N-(3-Cyanophenyl)-(2-chloro-5-nitrophenyl)carboxamide], the activity at 0.1 µM came to 63%.
In the case of `O=C(Nc1ccc([N+](=O)[O-])cc1)c1cc([N+](=O)[O-])ccc1Cl` [Example 23, N-(4-Nitrophenyl)-(2-chloro-5-nitrophenyl)carboxamide], the activity at 0.1 µM came to 57.7%.
On to `O=C(Nc1ccc([N+](=O)[O-])cn1)c1cc([N+](=O)[O-])ccc1Cl` [Example 24, N-(5-Nitropyridin-2-yl)-(2-chloro-5-nitrophenyl)carboxamide], for which the activity at 0.1 µM worked out at 59.1%.
In the case of `O=C(Nc1cccc([N+](=O)[O-])c1)c1cc([N+](=O)[O-])ccc1Cl` [Example 25, N-(3-Nitrophenyl)-(2-chloro-5-nitrophenyl)carboxamide], the activity at 0.1 µM is 84%.
Consider `O=C(Nc1ccncc1)c1cc([N+](=O)[O-])ccc1Cl` [Example 49, N-(4-Pyridyl)-(2-chloro-5-nitrophenyl)carboxamide], for which the activity at 0.1 µM was determined as 71%.
Same read-out and setting: then `O=C(Nc1ccc(Cl)nc1)c1cc([N+](=O)[O-])ccc1Cl` [Example 62, N-(6-Chloropyridin-3-yl)-(2-chloro-5-nitrophenyl)carboxamide], with 68.5%; and `O=C(Nc1ccc(NC(=O)c2cc([N+](=O)[O-])ccc2Cl)nc1)c1cc([N+](=O)[O-])ccc1Cl` [Example 64, 2,5-bis(2-Chloro-5-nitrobenzoylamino)pyridine], with 85.5%.
As for `O=C(Nc1nc2cc(Cl)ccc2o1)c1cc([N+](=O)[O-])ccc1Cl` [Example 75, N-(5-Chlorobenzoxazol-2-yl)-(2-chloro-5-nitrophenyl)carboxamide], the activity at 0.1 µM came to 88.6%.
As for `O=C(Nc1ncc(Br)cn1)c1cc([N+](=O)[O-])ccc1Cl` [Example 77, N-(5-Bromopyrimidin-2-yl)-(2-chloro-5-nitrophenyl)carboxamide], the activity at 0.1 µM stood at 68%.
In the case of `CS(=O)(=O)Nc1ccc(-c2ccc(NC(=O)c3cc([N+](=O)[O-])ccc3Cl)cc2)cc1` [Example 93, N-[4-[4-(Methanesulfonylamino)phenyl]phenyl]-(2-chloro-5-nitrophenyl)carboxamide], the activity at 0.1 µM amounted to 62.9%.
On to `Cc1ccc(S(=O)(=O)Nc2ccc(-c3ccc(NC(=O)c4cc([N+](=O)[O-])ccc4Cl)cc3)cc2)cc1` [Example 94, N-[4-[4-(4-Toluenesulfonylamino)phenyl]phenyl]-(2-chloro-5-nitrophenyl)carboxamide], for which the activity at 0.1 µM was 68.8%.
Same read-out and setting: then `CC(=O)Nc1ccc(-c2ccc(NC(=O)c3cc([N+](=O)[O-])ccc3Cl)cc2)cc1` [Example 118, N-[4-(4-Acetylaminophenyl)phenyl]-(2-chloro-5-nitrophenyl)carboxamide], with 53.6%; and `O=C(Nc1ccc(-c2ccc(NC(=O)c3cc([N+](=O)[O-])ccc3Cl)cc2)cc1)c1ccccc1` [Example 120, N-[4-(4-Benzoylaminophenyl)phenyl]-(2-chloro-5-nitrophenyl)carboxamide], with 79.8%; and `O=C(Nc1ccc(-c2ccc(NC(=O)c3cc([N+](=O)[O-])ccc3Cl)cc2)cc1)c1cccnc1` [Example 124, N-[4-[4-(Pyridin-3-ylcarbonylamino)phenyl]phenyl]-(2-chloro-5-nitrophenyl)carboxamide], with 84.2%.
On the same count and under the same terms, then `O=C(Nc1ccc(-c2ccc(NC(=O)c3cc([N+](=O)[O-])ccc3Cl)cc2)cc1)c1ccncc1` [Example 126, N-[4-[4-(Pyridin-4-ylcarbonylamino)phenyl]phenyl]-(2-chloro-5-nitrophenyl)carboxamide], with 75.2%.
Same read-out and setting: the same measure for `CCS(=O)(=O)Nc1ccc(-c2ccc(NC(=O)c3cc([N+](=O)[O-])ccc3Cl)cc2)cc1` [Example 130, N-[4-(4-Ethanesulfonylaminophenyl)phenyl]-(2-chloro-5-nitrophenyl)carboxamide]: 64%; for `Cc1ccc(C(=O)Nc2nc3ccc(NC(=O)c4cc([N+](=O)[O-])ccc4Cl)cc3s2)cc1` [Example 149, N-[2-(4-Methylbenzoylamino)benzothiazol-6-yl]-(2-chloro-5-nitrophenyl)carboxamide]: 80.3%; for `CC(=O)c1ccc(NC(=O)c2cc([N+](=O)[O-])ccc2Cl)cc1` [Example 155, N-(4-Acetylphenyl)-(2-chloro-5-nitrophenyl)carboxamide]: 82.7%.
As to `O=C(Nc1ccc(-n2ccnc2)cc1)c1cc([N+](=O)[O-])ccc1Cl` [Example 174, N-[4-(Imidazol-1-yl)phenyl]-(2-chloro-5-nitrophenyl)carboxamide], the activity at 0.1 µM stood at 68.8%.
With `O=C(Nc1ccc(-c2ccc(N3CCCCC3)cc2)cc1)c1cc([N+](=O)[O-])ccc1Cl` [Example 177, N-[4-[4-(Piperidin-1-yl)phenyl]phenyl]-(2-chloro-5-nitrophenyl)carboxamide], the activity at 0.1 µM was found to be 14%.
On to `O=C(Nc1ccc(N2CCN(C(=O)c3ccccc3)CC2)cc1)c1cc([N+](=O)[O-])ccc1Cl` [Example 184, N-[4-(4-Benzoylpiperazin-1-yl)phenyl]-(2-chloro-5-nitrophenyl)carboxamide], for which the activity at 0.1 µM was determined as 46.6%.
For `CC(C)(C)OC(=O)Nc1ccc(-c2csc(NC(=O)c3cc([N+](=O)[O-])ccc3Cl)n2)cc1` [Example 190, N-[4-(4-tert-Butoxycarbonylaminophenyl)thiazol-2-yl]-(2-chloro-5-nitrophenyl)carboxamide], the activity at 0.1 µM came to 64.2%.
For the compound `CCCN(CCC)c1ccc(-c2ccc(NC(=O)c3cc([N+](=O)[O-])ccc3Cl)cc2)cc1` [Example 194, N-[4-[4-(N,N-Dipropylamino)phenyl]phenyl]-(2-chloro-5-nitrophenyl)carboxamide], the activity at 0.1 µM came to 37.1%.
On to `CCCNc1ccc(-c2ccc(NC(=O)c3cc([N+](=O)[O-])ccc3Cl)cc2)cc1` [Example 204, N-[4-[4-(N-Propylamino)phenyl]phenyl]-(2-chloro-5-nitrophenyl)carboxamide], for which the activity at 0.1 µM amounted to 38.3%.
For `CCNc1ccc(-c2ccc(NC(=O)c3cc([N+](=O)[O-])ccc3Cl)cc2)cc1` [Example 205, N-[4-[4-(N-Ethylamino)phenyl]phenyl]-(2-chloro-5-nitrophenyl)carboxamide], the activity at 0.1 µM was 39.8%.
For the compound `CCCCCN(CCCC)c1ccc(-c2ccc(NC(=O)c3cc([N+](=O)[O-])ccc3Cl)cc2)cc1` [Example 206, N-[4-[4-(N-Butyl-N-pentylamino)phenyl]phenyl]-(2-chloro-5-nitrophenyl)carboxamide], the activity at 0.1 µM worked out at 30.6%.
For `CCCCN(CCCC)c1ccc(-c2ccc(NC(=O)c3cc([N+](=O)[O-])ccc3Cl)cc2)cc1` [Example 207, N-[4-[4-(N,N-Dibutylamino)phenyl]phenyl]-(2-chloro-5-nitrophenyl)carboxamide], the activity at 0.1 µM was determined as 32.7%.
In the case of `CCCCN(CCC)c1ccc(-c2ccc(NC(=O)c3cc([N+](=O)[O-])ccc3Cl)cc2)cc1` [Example 208, N-[4-[4-(N-Butyl-N-propylamino)phenyl]phenyl]-(2-chloro-5-nitrophenyl)carboxamide], the activity at 0.1 µM came out at 35.1%.
Regarding `CCCCN(CC)c1ccc(-c2ccc(NC(=O)c3cc([N+](=O)[O-])ccc3Cl)cc2)cc1` [Example 209, N-[4-[4-(N-Butyl-N-ethylamino)phenyl]phenyl]-(2-chloro-5-nitrophenyl)carboxamide], the activity at 0.1 µM was determined as 40.1%.
As for `CCCN(CC)c1ccc(-c2ccc(NC(=O)c3cc([N+](=O)[O-])ccc3Cl)cc2)cc1` [Example 212, N-[4-[4-(N-Ethyl-N-propylamino)phenyl]phenyl]-(2-chloro-5-nitrophenyl)carboxamide], the activity at 0.1 µM turned out to be 44%.
Regarding `CCCCCN(CCCCC)c1ccc(-c2ccc(NC(=O)c3cc([N+](=O)[O-])ccc3Cl)cc2)cc1` [Example 214, N-[4-[4-(N,N-Dipentylamino)phenyl]phenyl]-(2-chloro-5-nitrophenyl)carboxamide], the activity at 0.1 µM is 31.7%.
For `CCCCCN(CC)c1ccc(-c2ccc(NC(=O)c3cc([N+](=O)[O-])ccc3Cl)cc2)cc1` [Example 216, N-[4-[4-(N-Ethyl-N-pentylamino)phenyl]phenyl]-(2-chloro-5-nitrophenyl)carboxamide], the activity at 0.1 µM is 32.1%.
As for `CCN(CC)c1ccc(-c2ccc(NC(=O)c3cc([N+](=O)[O-])ccc3Cl)cc2)cc1` [Example 217, N-[4-[4-(N,N-Diethylamino)phenyl]phenyl]-(2-chloro-5-nitrophenyl)carboxamide], the activity at 0.1 µM was found to be 21%.
